Laboratory results from the supplement of paper PMC10307832.

Key:
Assay in all cases: relative viability (nuclei count vs DMSO), 5 days (fraction); higher = more cells survive
Salubrinal + Palbociclib = compound: O=C(/C=C/c1ccccc1)NC(NC(=S)Nc1cccc2cccnc12)C(Cl)(Cl)Cl [Salubrinal] + CC(=O)c1c(C)c2cnc(Nc3ccc(N4CCNCC4)cn3)nc2n(C2CCCC2)c1=O [Palbociclib] (partner 0.5 µM)
Outline: (§1)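 Lung cancer cell lines, seeded in 1536-well plates, were treated the following day by pin tool with a single drug or with five library-drug doses (not always all listed) in √10 steps on top of a fixed anchor-drug dose. Cells were fixed and nuclei stained in one step after 5 days, and nuclei were counted. Relative viability is the nuclei count for treated wells divided by that for vehicle wells, reported as medians of duplicate plates.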

Salubrinal + Linsitinib = compound: O=C(/C=C/c1ccccc1)NC(NC(=S)Nc1cccc2cccnc12)C(Cl)(Cl)Cl [Salubrinal] + C[C@]1(O)C[C@@H](c2nc(-c3ccc4ccc(-c5ccccc5)nc4c3)c3c(N)nccn32)C1 [Linsitinib] (partner 1 µM)
Outline: as §1

Salubrinal + Navitoclax = compound: O=C(/C=C/c1ccccc1)NC(NC(=S)Nc1cccc2cccnc12)C(Cl)(Cl)Cl [Salubrinal] + CC1(C)CCC(c2ccc(Cl)cc2)=C(CN2CCN(c3ccc(C(=O)NS(=O)(=O)c4ccc(N[C@H](CCN5CCOCC5)CSc5ccccc5)c(S(=O)(=O)C(F)(F)F)c4)cc3)CC2)C1 [Navitoclax] (partner 0.5 µM)
Outline: as §1

[1] = compound: Cc1ccc2nc(NCCN)c3ncc(C)n3c2c1 + Cc1cc(Nc2cc(N3CCN(C)CC3)nc(Sc3ccc(NC(=O)C4CC4)cc3)n2)n[nH]1 [Tozasertib] (partner 0.1 µM)
Outline: as §1

Cell Line	relative viability (Salubrinal + Palbociclib; first compound 0.08 µM)	relative viability (Salubrinal + Palbociclib; first compound 0.253 µM)	relative viability (Salubrinal + Palbociclib; first compound 0.8 µM)	relative viability (Salubrinal + Palbociclib; first compound 2.53 µM)	relative viability (Salubrinal + Palbociclib; first compound 8 µM)	relative viability (Salubrinal + Linsitinib; first compound 0.08 µM)	relative viability (Salubrinal + Linsitinib; first compound 0.253 µM)	relative viability (Salubrinal + Linsitinib; first compound 0.8 µM)	relative viability (Salubrinal + Linsitinib; first compound 2.53 µM)	relative viability (Salubrinal + Linsitinib; first compound 8 µM)	relative viability (Salubrinal + Navitoclax; first compound 0.08 µM)	relative viability (Salubrinal + Navitoclax; first compound 0.253 µM)	relative viability (Salubrinal + Navitoclax; first compound 0.8 µM)	relative viability (Salubrinal + Navitoclax; first compound 2.53 µM)	relative viability (Salubrinal + Navitoclax; first compound 8 µM)	relative viability ([1]; first compound 0.04 µM)	relative viability ([1]; first compound 0.1265 µM)	relative viability ([1]; first compound 0.4 µM)	relative viability ([1]; first compound 1.265 µM)	relative viability ([1]; first compound 4 µM)
NCI-H838	0.225	0.244	0.218	0.247	0.214	1.25	0.722	1.08	1.13	0.98	1.35	1.21	1.22	1.15	1.23	0.259	0.287	0.278	0.304	0.26
NCI-H1755	0.486	0.415	0.446	0.462	0.493	1.05	0.869	1.03	1	0.947	1.04	0.983	0.928	1.05	0.969	0.552	0.565	0.536	0.511	0.524
HCC-78	0.462	0.403	0.488	0.464	0.539	0.59	0.558	0.796	0.481	0.508	0.851	0.835	0.982	0.764	0.769	0.4	0.375	0.291	0.403	0.388
IA-LM						0.256	0.472	0.704	0.519	1.09	0.847	0.79	0.782	0.595	0.533					
NCI-H322M	0.528	0.445	0.547	0.483	0.518	1.1	0.858	0.927	0.891	0.823	1.38	1.19	1.34	1.23	1.16	0.553	0.452	0.528	0.547	0.462
NCI-H3122	0.195	0.238	0.172	0.195	0.176	1.07	1.06	0.984	1.06	0.987	1.09	1.01	1.06	1.06	1.09	0.436	0.391	0.412	0.352	0.293
NCI-H1623																0.453	0.486	0.451	0.355	0.354
NCI-H650	0.346	0.3	0.355	0.332	0.298	0.778	0.772	0.99	0.959	0.756						0.725	0.727	0.752	0.615	0.746
NCI-H1792	0.789		0.678	0.686	0.66	0.805		0.606	0.482	0.457	0.745		1.26	0.669	0.458					
ChaGo-K-1	1.02	0.756	0.954	0.938	0.837						1.07	0.849	1.58	1.37	1.12	0.258	0.253	0.253	0.236	0.238
NCI-H522	1.1	1.21	0.956	0.94	1.13											0.557	0.647	0.555	0.517	0.592
NCI-H1299						0.964	0.876	1.09	1	0.96	1.06	1.07	1.07	0.986	1.11					
NCI-H1650	0.314	0.297	0.334	0.366	0.375						1.17	1.06	1.13	1.19	1.16	0.434	0.431	0.513	0.439	0.296
SW 900	0.692	0.531	0.493	0.468	0.567											0.491	0.513		0.471	0.612
NCI-H596						1.07	0.936	1.17	1.1	0.903	1.01	1.09	0.959	0.869	1.01	1.16	1.01	0.922	0.883	0.863
NCI-H2170	0.436	0.326	0.447	0.395	0.372						0.662	0.581	0.631	0.598	0.503	0.755	0.625	0.694	0.671	0.679
NCI-H358	0.154	0.137	0.123	0.109	0.138	0.77	0.693	0.76	0.773	0.637						0.11	0.134	0.0909	0.101	0.098
A549						0.709	0.568	0.669	0.558	0.54	1.4	1.11	1.22	1.21	1.21					
NCI-H661	0.424	0.436	0.412	0.412	0.398	0.701	0.464	0.509	0.561	0.464						0.358	0.353	0.366	0.321	0.372
NCI-H1563						1.1	1.26	1.14	1.21	1.12										
ABC-1	0.692	0.576	0.836	0.547	0.664	0.802	0.753	0.76	0.952	0.781						0.171	0.15	0.171	0.187	0.22
LCLC-103H	0.469	0.491	0.469	0.453	0.467	1.14	1	1.02	1.22	1.01						0.426	0.525	0.384	0.427	0.439
